According to US20150307938A1, “METHOD TO IDENTIFY A NOVEL CLASS OF IMMUNOLOGIC ADJUVANTS” (Lancell, L.L.C., priority 2011, published 2015):

Key:
Fluzone [1] = system: Fluzone; parameters: species or system mice; settings: mouse, in vivo
Fluzone [2] = system: Fluzone; parameters: species or system C57BL/6 mice; settings: mouse, in vivo
[3] = system: Murine Skin Dendritic Cells; experiment: Activation of murine skin dendritic cells by DBP vs. DBlT (DC per lymph node, CD86); assay type: in vivo; settings: topical treatment
OVA = experiment: Antibody response to endotoxin-free OVA injected intradermally followed by topical DBP; assay type: in vivo, B6 mice; settings: endotoxin-free OVA i.d. followed by topical DBP
Text: The cutaneous lymphoid stress response bears a strong resemblance to the effects of topical DBP. DBP is required for the induction of contact hypersensitivity to FITC in mice, a form of allergic response. Topical DBP induces the migration of Langerhans cells from the epidermis to draining lymph nodes. And, topical DBP acts as an adjuvant for antigens injected into the skin, including endotoxin-free OVA. One might expect, therefore, that topical DBP would cause the same effects as tape stripping or occlusive skin patch immunization. To our surprise, none of the effects that characterize the DETC-dependent cutaneous lymphoid stress-surveillance response are found in the response to DBP.

CCCCOC(=O)c1ccccc1C(=O)OCCCC [DBP, dibutylphthalate]
IgA Ab in bronchoalveolar lavage (Fluzone [1]): highly significantly increased
IgA Ab in bronchoalveolar lavage, persistence (Fluzone [1]): remained undiminished
Serum antibodies of all IgG isotypes (Fluzone [1]): highly significantly increased
HAI titer / adjuvant effect with the same dose of Fluzone (Fluzone [2]): majorly improved
MFI CD86 [3]: 618 (95)
antigen-specific IgE (OVA): undetectable
antigen-specific IgG1 antibodies (OVA): significantly elevated
antigen-specific IgG2b antibodies (OVA): significantly elevated
antigen-specific IgG2c antibodies (OVA): significantly elevated
